{
  "source": "patent US6743923B2",
  "about": "“Antirheumatic agent” (Shionogi & Co., Ltd., priority 1997, dated 2004)",
  "key": {"[1]": {"tested_on": "IL-6 production from neutrophil", "experiment": "Inhibitory activity against IL-6 production, LPS-stimulated neutrophil fraction from human peripheral blood", "format": "cell-based", "conditions": "10 μg/mL LPS, 16-18 hours, RIA"}, "NZB/KN mouse": {"tested_on": "NZB/KN mouse", "experiment": "Inhibitory effect against bone destruction in spontaneous rheumatic model NZB/KN mouse", "format": "in vivo", "conditions": "male NZB/KN mice, oral, five times a week", "from_the_text": "To male NZB/KN mice, in which a human RA-like pathology arises spontaneously due to their immunologically abnormal background, was orally administered Compound Ia once in a day (five times a week) for six months beginning at two-month-age. The mice which reached six month old (some were eight month old) were full-length radiographed under anesthetization and predetermined conditions using a soft X-ray generator (OM-55, Omic). According to the method of Nakamura, et. al. [Arthritis. Rheum., 34, 171-179 (1991)], the number of the lesions observed in the bones and articular regions in the whole body were counted on the basis of the soft X-ray radiographed films, and the total number of the observed lesions were defined as the number of the bone disorders in the animal. The results were shown using mean±standard deviation, and significance test was performed according to Dunnett-t test (*p<0.05, ** p<0.01: vs. vehicle group)."}, "[2]": {"tested_on": "osteoclast formation in mouse myeloblast", "experiment": "Inhibition of IL-1β-enhanced formation of osteoclast in mouse myeloblast culture", "format": "cell-based", "conditions": "2.5 ng/mL human IL-1β, six days, TRAP positive multinucleate cells", "method": "It has been known that the enhanced formation of osteoclast is induced in the mouse myeloblast culture by addition of IL-1β and such effect is derived from PGE2 production through COX-2 induction. In order to determine inhibitory effect of the compounds against such effect, myeloblasts were collected from a ddY male mice, plated in a 48-well plate at 1×10^6/well and incubated. After culturing for six days in an α-MEM medium containing 10% fetal bovine serum, to which 2.5 ng/mL of human IL-1β and a predetermined concentration of the compounds were added, PGE2 level in the supernatant was measured by RIA kit. On the other hand, cells adhering on the plate were immobilized, and an activity staining of tartaric acid resistant acid phosphatase (TRAP), which is a marker enzyme for osteoclast, was conducted, whereby the number of TRAP positive cells having multinucleate (N>3) per well was counted as osteoclast."}},
  "data": [
    {"smiles": "CCN1CC/C(=C\\c2cc(C(C)(C)C)c(O)c(C(C)(C)C)c2)S1(=O)=O", "note": "[Compound Ia, (E)-2-Ethyl-5-(3,5-di-tert-butyl-4-hydroxy)benzylidene-1,2-isothiazolidine-1,1-dioxide]", "values": [
      {"measurement": "IC50", "setting": "[1]", "result": 20, "unit": "µM"},
      {"measurement": "dose with significant improving effect on the bone-articular lesions", "setting": "NZB/KN mouse", "result": "≥ 10", "unit": "mg/kg/day"},
      {"measurement": "IC50", "setting": "[2]", "result": 0.0013, "unit": "µM"}
    ]}
  ]
}
